The nature of data set [1]: Delivery agent plasma concentrations in humans after oral delivery agent capsules. It is filed as in vivo, human. The method, then: Delivery agents 1-3 were investigated for their ability to penetrate the GI mucosa. The plasma concentration of each delivery agent was measured in human subjects after oral administration of delivery agent loaded capsules as a measure of each delivery agent's penetration efficiency.
Blood sampling for plasma delivery agent concentration determination (2 mL in sodium heparin tube) were drawn 15 minutes before dosing, and at 5, 10, 15, 30, and 45 minutes and 1, 1.5, 2, 3, 4, 6, 8, and 12 hours post-dose (14 samples per treatment) for delivery agent measurements in all treatment groups.
Two 18-gauge IV lines were situated prior to dosing; one for blood sampling, and the other for potential infusion of 20% glucose for subjects in groups 2 and 3. The subjects in group 1 only had one cannula inserted. The blood samples were centrifuged at 3000 rpm for a period of fifteen minutes at a temperature from about 2° C. to 8° C., within one hour of sample collection. Using a plastic pipette and without disturbing the red cell layer, the plasma from the collection tube was pipetted in duplicate for each analysis, blood glucose, Human Insulin, C-peptide, delivery agent into pre-labeled polypropylene tubes. The samples were stored at −70° C. until analysis.
The indicated doses were ingested by healthy human volunteers and the plasma concentrations of the delivery agents were monitored over time and the area under the curve (AUC) calculated. […] Similarly, oral administration of 800 mg of delivery agent number 3 produced more than a 23 fold greater penetration of the GI mucosa in humans than did oral administration of 750 mg of delivery agent 2 having n equal to 9 alkyl.

Data set [2] is described as follows: Delivery agent plasma concentrations in monkeys after oral administration. The class given is in vivo. On the procedure:
Similar results were obtained when delivery agents 1-3 were administered orally to monkeys and the plasma concentrations of the delivery agents monitored over time and the AUC calculated.

For the next data set, the system named is serum glucose. The data set can be described thus: Effective clinical dose of delivery agent in humans (delivery efficiency). The class given is in vivo, human. The method, then: Next, delivery agents 1-3 were compared for the ability to efficiently transport an active agent across the GI mucosa in a biologically active form by determining the relationship between delivery agent dose, dose of active agent and the glucose response. The effective dose of delivery agent necessary to deliver a therapeutic dose of active agent and produce a therapeutic effect was measured. For delivery agent 3, the active agent was insulin, and the therapeutic effect was determined by the ability of the delivery agent/insulin combination to lower serum glucose by at least 10% within one hour post administration. For delivery agents 1 and 2, the active agent was heparin, and the therapeutic effect was determined by […]

Data set [3] has as its system primary molecular targets. The data set can be described thus: Receptor binding screening assays. On the procedure:
(§1) The present invention comprising compositions of insulin and the delivery agent 4-CNAB was evaluated for safety and toxicity in a nonclinical program that included pharmacological screening, pharmacokinetic profiling, and toxicity assessments in rats and monkeys.

The subject of a further data set is rhesus monkeys. The settings on record: rhesus monkey, in vivo, 14 days. The method, then: as §1
Data set [4] can be described thus: Nonclinical pharmacokinetic studies of 4-CNAB. It is filed as in vivo. The note with it: mice, rats and monkeys. On the procedure:
as §1

The test system of a further data set is plasma C-peptide. The data set can be described thus: Example 6: plasma C-peptide during glucose clamp. The class given is in vivo, human. The settings on record: for C-peptide level, mean: 15 U SC. On the procedure:
During each study period, blood samples were collected for the determination of plasma insulin concentrations, plasma C-peptide and plasma glucose concentration. Sampling occurred from 6 hrs before dosing and continued for 6 hrs after the dose was administered. Blood samples were collected via a venous cannula. Blood samples were collected relative to the administration of the study drug (1) prior to study of drug administration at −1 and −0.5 hrs, (2) immediately after study drug administration (time 0), and (3) post administration of the study drug at 10, 20, 30, 40, 50 min, and 1, 1.25, 1.5, 1.75, 2, 2.5, 3, 3.5, 4, 5, and 6 hrs
Blood samples were collected from each patient during each treatment period for determination of plasma insulin concentrations, plasma C-peptide, and plasma glucose. Glucose infusion rates and blood glucose measurements were measured continuously during the glucose clamp procedure. All treatments were identical in their sample collection and monitoring periods for all visits. After a 6 hours pre-dose baseline period for stabilization of blood glucose concentrations at the desired clamp level, the clamp procedure after study drug administration lasted 6 hours.

Another data set is described as follows: Example 6: safety. More on the design: species or system human. The settings on record: in vivo.
The conditions of data set [5]: in vivo, sc.
From the text: Safety assessments included physical examinations, medical history, vital signs, 12-lead electrocardiogram (ECG) monitoring, laboratory evaluations and checking for adverse events. Activity parameters included blood glucose, insulin, C-peptide, and 4-CNAB plasma concentration measurements.

As usually defined, the AUC is concentration integrated over time. Lower therefore signals less exposure. As for `O=C(O)CCCNC(=O)c1ccc(Cl)cc1O` [4-CNAB, 4-[(4-chloro, 2-hydroxybenzoyl)amino]butanoic acid], in data set [1] (humans, 800 mg vs 750 mg oral), the “Fold greater penetration of the GI mucosa vs delivery agent 1” value is given as “approximately 13.5 fold” and the “Fold greater penetration of the GI mucosa vs delivery agent 2” value is reported as greater than 23 fold. The same compound came in with an AUC in data set [1] (plasma, oral capsules, 800 mg, healthy human volunteers) of 47500 ng·h/mL. In data set [2] (300 mg oral each), the “Fold greater penetration of the GI mucosa vs delivery agent 1” value is on record as “more than 11 fold” and the “Fold greater penetration of the GI mucosa vs delivery agent 2” value is listed as “more than 6 fold”. In data set [2] (monkey, plasma, oral, 300 mg), this compound registered an AUC of 499 ng·h/mL. Also, the “Effective clinical dose of delivery agent” value in the data set on serum glucose (active agent insulin, lowers serum glucose by at least 10% within one hour) is listed as 200 Mg. For the same compound, in the data set on serum glucose (effective dose ratio), the “Fold more efficient in facilitating transit across the GI mucosa vs delivery agent 1” value is “approximately 12 fold” and the “Fold more efficient in facilitating transport across the GI mucosa vs delivery agent 2” value is 7.5 fold. For the same compound, the “Activity in receptor binding screening” value in data set [3] is “did not demonstrate potential activity in any of the primary molecular targets”. Further, the “Highest proposed human dose (2000 mg) fold lower than NOAEL in monkeys” value in the data set on rhesus monkeys is 12-16 fold. Also, in data set [4], the “Absorption after oral administration” value was “absorbed rapidly following oral administration, and subsequently cleared from the body”.

Turning to “SC insulin: human regular insulin injected subcutaneously (Humulin R or equivalent; Calbiochem insulin in the rat studies)”, in the data set with plasma C-peptide (15 IU s.c., 300 IU oral and 150 IU oral), the “Change in C-peptide during treatment periods” value is listed as “no significant changes”. In addition, the “C-peptide level, mean” value in the data set with plasma C-peptide (10 minutes) is reported as 1.05 nmol/L; with plasma C-peptide (20 minutes) it was 1.07 nmol/L; in the data set on plasma C-peptide (30 minutes) it was 1.09 nmol/L; in the data set on plasma C-peptide (40 minutes) it was 1.11 nmol/L; in the data set on plasma C-peptide (50 minutes) it was 1.05 nmol/L; with plasma C-peptide (60 minutes), 1.04 nmol/L. Also, the “C-peptide level, mean” value in the data set on plasma C-peptide (75 minutes) was 1.07 nmol/L; in the data set on plasma C-peptide (90 minutes), 1.03 nmol/L; in the data set with plasma C-peptide (105 minutes) it was 1.01 nmol/L; with plasma C-peptide (120 minutes) it was 0.99 nmol/L; with plasma C-peptide (150 minutes), 1.01 nmol/L; in the data set with plasma C-peptide (180 minutes), 0.99 nmol/L. The “C-peptide level, mean” value stood at 0.97 nmol/L with plasma C-peptide (210 minutes); 0.94 nmol/L in the data set on plasma C-peptide (240 minutes); 0.96 nmol/L with plasma C-peptide (300 minutes); 0.92 nmol/L in the data set with plasma C-peptide (360 minutes); 1.04 nmol/L in the data set with plasma C-peptide (Time 0); 1.05 nmol/L with plasma C-peptide (−30 minutes). In the data set with plasma C-peptide (−60 minutes), the “C-peptide level, mean” value was determined as 1.02 nmol/L. For the same compound, the “Adverse events / tolerability” value in “Example 6: safety” was “No adverse events were observed”. In data set [5], the “Hypoglycemia occasions requiring rescue treatment” value is reported as “twelve”. In addition, the Treatment-related adverse events result in data set [5] is given as “sixteen events”.
